In patent publication US10441562B2, “Aromatic farnesyl compound and application thereof” (INSTITUTE OF MICROBIOLOGY, CHINESE ACADEMY OF SCIENCES, priority 2015, dated 2019):
Marks after values point to notes of the source that are not given here.

Assays:
Kunming species mice = test: acute toxicity test of mice
Procedure: (§1) Materials: 20 Kunming species mice of 6-8 weeks of 20-22 g are purchased from Beijing Vital River Laboratory Animal Technology Co., Ltd.,
(§2) Accurately weigh the 2 compounds S13 and S28, and then add 0.5% CMC-Na to make the solution of 0.2 g/ml.
(§3) After being acclimatized for 3-5 days, the mice are fasted at 18:00 in the day before the experiment, free drinking. The mice are randomly divided into groups of 10 animals in each and given with medicine by intragastric administration, and 0.25 ml of drugs is given to every 10 g weight of mice, i.e. dose 5 g/kg. Mice of control group are given with 0.5% CMC-Na by intragastric administration, and 0.25 ml of solution are given to every 10 g weight of mice.
(§4) After administration, observe the general status of mice, such as appearance, behavior, response to stimulus, secretion and excretion, and record the time when abnormal phenomena happen. If death occurred, record time and observe the abnormal phenomena by autopsy.

[1] = acute toxicity test of mice; settings: Kunming, mouse, in vivo, po, 5 g/kg
Procedure: as §1, §2, §3, §4

[2] = tested on: rats fed with high fat diet; test: blood lipid of rats fed with high fat diet; assay type: in vivo, SD rats; settings: 50 mg/kg intragastric, 10 days, serum
Description: Serum total cholesterol kit (batch number 20131112), low density lipoprotein LDL-C kit (batch number 20140114), high density lipoprotein HDL-C kit (batch number 20140413), triglyceride TG kit (batch number 20131226), superoxide dismutase SOD kit (batch number 20140213) and glutamic-pyruvic transaminase ALT kit (batch number 20131006) are purchased from Nanjing Jiancheng Bioengineering Institute.
Methods: after being acclimatized for 1 week, the 200±20 g healthy male SD rats are randomly divided into 4 groups of 8 animals in each. The control group is fed with normal diet, while the other groups are fed with high-fat diet, which is normal diet with 1% cholesterol, 0.2% pig bile sal, 10% lard and 10% egg yolk powder. After being fed for 3 weeks, 10 mg/ml extract solution of 1 ml (which corresponds to 50 mg/kg) is given to different groups of rats by intragastric administration for 10 days successively, and the control group and model group are given with equal amounts of saline. After the last administration, blood is taken to be centrifuged at 3000 rpm in 4[…], and then detect serum total cholesterol, low density lipoprotein and triglyceride TG

HMG-CoA reductase = target: T1, HMG-CoA reductase (Homo sapiens, UniProt P04035); test: HMG-CoA reductase inhibitory activity test in vitro; assay type: biochemical
T1 sequence (P04035 426-888 limits assumed): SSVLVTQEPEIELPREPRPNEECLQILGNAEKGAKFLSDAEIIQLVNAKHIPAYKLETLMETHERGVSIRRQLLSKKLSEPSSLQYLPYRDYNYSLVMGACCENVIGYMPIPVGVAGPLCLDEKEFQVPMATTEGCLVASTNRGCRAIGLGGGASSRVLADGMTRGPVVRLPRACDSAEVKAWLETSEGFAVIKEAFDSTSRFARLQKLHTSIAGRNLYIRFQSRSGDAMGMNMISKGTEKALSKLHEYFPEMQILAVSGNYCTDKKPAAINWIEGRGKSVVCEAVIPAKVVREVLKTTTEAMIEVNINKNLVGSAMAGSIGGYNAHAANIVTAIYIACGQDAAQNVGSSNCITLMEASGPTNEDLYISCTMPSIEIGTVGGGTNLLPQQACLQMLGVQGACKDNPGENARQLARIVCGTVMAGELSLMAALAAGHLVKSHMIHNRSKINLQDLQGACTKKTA

α-glucosidase = target: T2, α-glucosidase (Saccharomyces cerevisiae, UniProt P53341); test: α-glucosidase inhibitory activity test in vitro; assay type: biochemical; settings: read-out: α-glucosidase inhibitory activity (IC50)
T2 construct: purchased Sigma Corporation G5003
T2 sequence (P53341 whole entry): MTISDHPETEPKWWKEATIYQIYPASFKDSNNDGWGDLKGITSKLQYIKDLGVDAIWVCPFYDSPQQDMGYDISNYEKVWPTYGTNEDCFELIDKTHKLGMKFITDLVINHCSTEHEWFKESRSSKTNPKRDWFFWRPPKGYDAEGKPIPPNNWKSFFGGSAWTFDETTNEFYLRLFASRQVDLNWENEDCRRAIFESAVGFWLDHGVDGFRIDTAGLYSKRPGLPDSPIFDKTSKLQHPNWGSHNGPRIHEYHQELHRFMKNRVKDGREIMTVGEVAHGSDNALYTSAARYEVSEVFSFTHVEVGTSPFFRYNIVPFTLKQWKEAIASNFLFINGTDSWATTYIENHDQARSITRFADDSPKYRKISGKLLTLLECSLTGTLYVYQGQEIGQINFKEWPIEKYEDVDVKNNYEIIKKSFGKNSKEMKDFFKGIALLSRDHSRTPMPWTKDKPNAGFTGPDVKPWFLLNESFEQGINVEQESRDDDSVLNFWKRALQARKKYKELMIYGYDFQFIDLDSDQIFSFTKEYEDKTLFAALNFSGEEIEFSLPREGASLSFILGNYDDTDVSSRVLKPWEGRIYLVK

SMILES	abnormal phenomena by autopsy (Kunming species mice; mice, intragastric administration, dose 5 g/kg)	LD50 [1]	ALT [2]	HDL-C [2]	LDL-C [2]	SOD [2]	TC [2]	TG [2]	IC50 (HMG-CoA reductase)	IC50 (α-glucosidase)	abnormal phenomena by autopsy (Kunming species mice; mouse, in vivo)	body weight of mice after administration (Kunming species mice; mouse, in vivo)
CC(C)=CCC/C(C)=C/CCC1=C[C@H](c2cc(O)ccc2O)OC1=O [S13, (R,E)-5-(2,5-dihydroxyphenyl)-3-(4,8-dimethylnona-3,7-dien-1-yl)furan-2(5H)-one]	no obvious abnormal phenomena are found by autopsy	> 5000 mg/kg	61.3* U/L	0.99 mmol/L	0.36** mmol/L	2.04 U/L	2.13* mmol/L	0.44* mmol/L	7.9 µM	0.27 µM		
CC(C)=CCC/C(C)=C/CCC1=C[C@@H](c2cc(O)ccc2O)OC1=O [S28, (S,E)-5-(2,5-dihydroxyphenyl)-3-(4,8-dimethylnona-3,7-dien-1-yl)furan-2(5H)-one]		> 5000 mg/kg	72.1* U/L	0.97 mmol/L	0.38** mmol/L	2.10* U/L	1.98** mmol/L	0.45* mmol/L	8.9 µM	0.42 µM	no obvious abnormal phenomena are found by autopsy	drop slightly
